Measured values published in patent publication US20110262025A1, “Cosmetic Compositions and Methods for Maintaining and Improving Barrier Function of the Stratum Corneum and to Reduce the Visible Signs of Aging in Skin” (priority 2010, published 2011).
Where a SMILES comes first, the peptide text is derived from it. The star is where a group is joined. Cbz = O=C(OCc1ccccc1)*; CH2F = FC*

Key:
[1] = test system: genes associated with SC lipid pathways, Dermaquant model keratinocytes and fibroblasts; experiment: Transcriptional profiling (Affymetrix U133A plus 2) in aged-equivalent skin culture; assay type: cell-based, human; details: 0.1% Hexamidine vs vehicle (water), 4-48 hours
Protocol: The Experimental design is set forth in Table I. Cultures were treated and harvested at indicated time points. Total RNA extraction, labeling and hybridization to AffymetrixTM U133A plus 2 gene chips were conducted. Data were subjected to normalization and statistical analysis.

Aquaporin 3 = experiment: Multiplex mRNA analysis (Panomics QuantiGene Plex) in keratinocytes; assay type: cell-based; details: neonatal human keratinocytes, 24 hours, vs no treatment
Protocol: A multiplex mRNA analysis was conducted. RNA was isolated from neonatal human keratinocytes. Neonatal human keratinocytes (Cascade Biologics # C-001-5C) were grown to 40% confluence in 6-well tissue culture plates then treated with compounds for 24 hours (3 replicates per treatment). The treatments included several concentrations of Hexamidine, Niacinamide, and /or Pentanediol. Additionally, 0.00194% (100 μM) caffeine and no-treatment controls were performed.
Several targets were measured with Panomics QuantiGene Plex Assay kit, a multi-analyte quantitative bead-based assay. The fluorescence intensity values, measured by a Bio-Rad Bio-Plex 100 instrument, for those samples yielding sufficient RNA are shown for Aquaporin 3, CDD44 antigen, and Claudin 1. Also measured were Glyceraldehyde-3-phosphate dehydrogenase, Collagen 1α2, Filaggrin, Serine palmitoyltransferase, Interleukin 1,3-hydroxy-3methylglutaryl-coenzyme A reductase, and Interferon gamma.

Epiderm 201 cultures = experiment: TEWL (evaporimeter) in epidermal cultures; assay type: cell-based, human; details: 1% Niacinamide, 24 hour treatment
Text: Biomarker endpoints and certain clinical skin instrumental measurements, such as those used for skin barrier determinations, can be detected in skin equivalent cultures. As noted above, the stratum corneum barrier consists of flattened, terminally differentiated corneocytes surrounded by specialized lamellar lipids, which act to retard loss of water from the skin's surface. Water loss can be measured functionally by use of an evaporimeter instrument wherein the endpoint measured is TEWL, and is expressed in units of grams of water per skin per hour. In one validity test the present inventors took epidermal cultures from a commercial supplier (Epiderm 201 cultures from MatTek Corp., Ashland Mass.) grew them in cultures for four days whereby the number of differentiated cell layers and stratum corneum thickness was increased during this period. […] These findings indicate that in vitro epidermal constructs form a functional water barrier that can be enhanced by compounds such as Niacinamide.

cornification = details: after barrier disruption; cited from earlier work

What does the source list for `N=C(N)c1ccc(OCCCCCCOc2ccc(C(=N)N)cc2)cc1` [Hexamidine, 4,4′-(hexamethylenedioxy)dibenzenecarboximidamide]?
cellular cholesterol and fatty acid uptake mechanisms [1]: up-regulation; expression of gene involved in LB formation (ABCAl2) [1]: Increased expression; expression of gene involved in LB secretion (ABHD5) [1]: Increased expression; gene encoding rate limiting enzyme in biosynthesis of cholesterol (HMGCR) [1]: up-regulation; gene encoding rate limiting enzyme in biosynthesis of fatty acid (ACACA) [1]: up-regulation; gene encoding rate limiting enzyme in biosynthesis of sphingolipid (SPTLC1/2) [1]: up-regulation; mitochondrial cholesterol and fatty acid utilization pathways [1]: down-regulation; transcriptional activators of genes involved in lipid metabolism [1]: up-regulation; Aquaporin 3 expression (Aquaporin 3): upregulated

Which TEWL levels (Epiderm 201 cultures) does the source give for `NC(=O)c1cccnc1` [Niacinamide] here?
The TEWL levels was “reduced further”.

With `COC(=O)C[C@H](NC(=O)[C@H](C)NC(=O)[C@@H](NC(=O)OCc1ccccc1)C(C)C)C(=O)CF` [Z-VAD-FMK] (Cbz-Val-Ala-Asp(OMe)-CH2F) as the molecule, how does the cornification (cornification) read?
Its cornification is “delays”.

With Pentanediol as the molecule, how does the “Aquaporin 3 expression” value (Aquaporin 3) read?
The value was “upregulated”.
